In PubChem BioAssay (NCI):
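Exposure lasted 48 hours, with cells grown in 96-well plates and compounds tested at five concentrations. At the TGI there is no net growth.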 Where a SMILES comes first, the peptide text is derived from it. [ ]: non-standard residue; d: D form. The star is where a group is joined. Chg = N[CH](C(=O)O)C1CCCCC1; Cbz = O=C(OCc1ccccc1)*; OBn = c1ccc(CO*)cc1

Experiments:
Test in all cases: growth of human tumour cells (NCI), 48 h
[1] = system: 786-0 renal
[2] = system: A549 NSCLC
[3] = system: ACHN renal
[4] = system: CCRF-CEM leukemia
[5] = system: COLO 205 colon
[6] = system: DU-145 prostate
[7] = system: EKVX NSCLC
[8] = system: HCC-2998 colon
[9] = system: HCT-15 colon
[10] = system: HL-60(TB) leukemia
[11] = system: HOP-62 NSCLC
[12] = system: HOP-92 NSCLC
[13] = system: HS 578T breast
[14] = system: HT29 colon
[15] = system: IGROV1 ovarian
[16] = system: K-562 leukemia
[17] = system: KM12 colon
[18] = system: M14 melanoma
[19] = system: MALME-3M melanoma
[20] = system: MCF7 breast
[21] = system: MDA-N
[22] = system: MOLT-4 leukemia
[23] = system: NCI-H226 lung
[24] = system: NCI-H23 lung
[25] = system: NCI-H460 lung
[26] = system: NCI-H522 lung
[27] = system: NCI/ADR-RES ovarian
[28] = system: OVCAR-5 ovarian
[29] = system: OVCAR-8 ovarian
[30] = system: PC-3 prostate
[31] = system: RPMI-8226 leukemia
[32] = system: SF-268 CNS
[33] = system: SF-295 CNS
[34] = system: SF-539 CNS
[35] = system: SK-MEL-28 melanoma
[36] = system: SK-MEL-5 melanoma
[37] = system: SN12C renal
[38] = system: SNB-19 CNS
[39] = system: SR leukemia
[40] = system: SW-620 colon
[41] = system: T-47D breast
[42] = system: TK-10 renal
[43] = system: U251 CNS
[44] = system: UACC-62 melanoma
[45] = system: UO-31 renal
[46] = system: CAKI-1 renal
[47] = system: HCT-116 colon
[48] = system: LOX IMVI melanoma
[49] = system: MDA-MB-231 breast
[50] = system: MDA-MB-435
[51] = system: OVCAR-3 ovarian
[52] = system: OVCAR-4 ovarian
[53] = system: RXF 393 renal
[54] = system: SK-MEL-2 melanoma
[55] = system: SK-OV-3 ovarian
[56] = system: SNB-75 CNS
[57] = system: UACC-257 melanoma
[58] = system: A498 renal

CCOC1CCC2C(CCC(/C=C/c3ccc(O)c4ncccc34)N2C)C1 (stereo not given)
TGI [1]: > 100 µM
TGI [2]: > 100 µM
TGI [3]: > 100 µM
TGI [4]: > 100 µM
TGI [5]: 11.9 µM
TGI [6]: > 100 µM
TGI [7]: 90.4 µM
TGI [8]: > 100 µM
TGI [9]: > 100 µM
TGI [10]: > 100 µM
TGI [11]: > 100 µM
TGI [12]: 59.7 µM
TGI [13]: 51.6 µM
TGI [14]: > 100 µM
TGI [15]: > 100 µM
TGI [16]: > 100 µM
TGI [17]: 95.2 µM
TGI [18]: > 100 µM
TGI [19]: > 100 µM
TGI [20]: > 100 µM
TGI [21]: > 100 µM
TGI [22]: > 100 µM
TGI [23]: > 100 µM
TGI [24]: 66 µM
TGI [25]: > 100 µM
TGI [26]: 5.89 µM
TGI [27]: > 100 µM
TGI [28]: > 100 µM
TGI [29]: > 100 µM
TGI [30]: > 100 µM
TGI [31]: > 100 µM
TGI [32]: > 100 µM
TGI [33]: > 100 µM
TGI [34]: 29.2 µM
TGI [35]: > 100 µM
TGI [36]: > 100 µM
TGI [37]: > 100 µM
TGI [38]: > 100 µM
TGI [39]: > 100 µM
TGI [40]: > 100 µM
TGI [41]: 62 µM
TGI [42]: > 100 µM
TGI [43]: > 100 µM
TGI [44]: > 100 µM
TGI [45]: > 100 µM

COC(=O)C(NC(=O)C(CC(=O)OCc1ccccc1)NC(=O)OCc1ccccc1)C1CCCCC1 (stereo not given) (Cbz-Asp(OBn)-[Chg]-OMe; configuration not given here)
TGI [1]: > 100 µM
TGI [2]: > 100 µM
TGI [3]: > 100 µM
TGI [46]: > 100 µM
TGI [4]: > 100 µM
TGI [5]: > 100 µM
TGI [6]: > 100 µM
TGI [7]: > 100 µM
TGI [8]: > 100 µM
TGI [47]: > 100 µM
TGI [9]: > 100 µM
TGI [10]: > 100 µM
TGI [11]: > 100 µM
TGI [12]: > 100 µM
TGI [13]: 81.3 µM
TGI [14]: > 100 µM
TGI [15]: > 100 µM
TGI [16]: > 100 µM
TGI [17]: > 100 µM
TGI [48]: > 100 µM
TGI [18]: > 100 µM
TGI [19]: > 100 µM
TGI [20]: > 100 µM
TGI [49]: > 100 µM
TGI [50]: > 100 µM
TGI [21]: > 100 µM
TGI [22]: > 100 µM
TGI [23]: > 100 µM
TGI [24]: > 100 µM
TGI [25]: > 100 µM
TGI [26]: > 100 µM
TGI [27]: > 100 µM
TGI [51]: > 100 µM
TGI [52]: > 100 µM
TGI [28]: > 100 µM
TGI [29]: > 100 µM
TGI [30]: > 100 µM
TGI [31]: > 100 µM
TGI [53]: > 100 µM
TGI [32]: > 100 µM
TGI [33]: > 100 µM
TGI [34]: > 100 µM
TGI [54]: > 100 µM
TGI [35]: > 100 µM
TGI [36]: > 100 µM
TGI [55]: > 100 µM
TGI [37]: > 100 µM
TGI [38]: > 100 µM
TGI [56]: > 100 µM
TGI [39]: > 100 µM
TGI [40]: > 100 µM
TGI [41]: > 100 µM
TGI [42]: > 100 µM
TGI [43]: > 100 µM
TGI [57]: > 100 µM
TGI [44]: > 100 µM
TGI [45]: > 100 µM

OC[C@H]1C[C@@H]2Cc3ccccc3N2N1
TGI [1]: > 100 µM
TGI [58]: > 100 µM
TGI [2]: > 100 µM
TGI [3]: > 100 µM
TGI [46]: > 100 µM
TGI [4]: > 100 µM
TGI [5]: > 100 µM
TGI [6]: > 100 µM
TGI [7]: > 100 µM
TGI [8]: > 100 µM
TGI [47]: > 100 µM
TGI [9]: > 100 µM
TGI [10]: > 100 µM
TGI [11]: > 100 µM
TGI [12]: > 100 µM
TGI [13]: > 100 µM
TGI [14]: > 100 µM
TGI [15]: > 100 µM
TGI [16]: > 100 µM
TGI [17]: > 100 µM
TGI [48]: > 100 µM
TGI [18]: > 100 µM
TGI [19]: > 100 µM
TGI [49]: > 100 µM
TGI [50]: > 100 µM
TGI [21]: > 100 µM
TGI [22]: > 100 µM
TGI [23]: > 100 µM
TGI [24]: > 100 µM
TGI [25]: > 100 µM
TGI [26]: > 100 µM
TGI [27]: > 100 µM
TGI [51]: > 100 µM
TGI [52]: > 100 µM
TGI [28]: > 100 µM
TGI [29]: > 100 µM
TGI [30]: > 100 µM
TGI [53]: > 100 µM
TGI [32]: > 100 µM
TGI [33]: > 100 µM
TGI [34]: > 100 µM
TGI [54]: > 100 µM
TGI [35]: > 100 µM
TGI [36]: > 100 µM
TGI [55]: > 100 µM
TGI [37]: > 100 µM
TGI [38]: > 100 µM
TGI [56]: > 100 µM
TGI [39]: > 100 µM
TGI [40]: > 100 µM
TGI [41]: > 100 µM
TGI [42]: > 100 µM
TGI [43]: > 100 µM
TGI [57]: > 100 µM
TGI [44]: > 100 µM

COP(=O)(OC)/C(=C\C1=CN(C(c2ccccc2)(c2ccccc2)c2ccccc2)CN1)NC=O
TGI [58]: 32.2 µM
TGI [2]: 30.5 µM
TGI [3]: 28.9 µM
TGI [46]: 39.5 µM
TGI [5]: 40.5 µM
TGI [6]: 35.2 µM
TGI [8]: 38.4 µM
TGI [47]: 29.6 µM
TGI [9]: 33.1 µM
TGI [10]: 50.9 µM
TGI [11]: 31.3 µM
TGI [12]: 23 µM
TGI [13]: 51.2 µM
TGI [14]: 28.2 µM
TGI [15]: 49.2 µM
TGI [16]: > 100 µM
TGI [48]: 26.3 µM
TGI [18]: 43.9 µM
TGI [49]: 33.9 µM
TGI [50]: 23.1 µM
TGI [21]: 28.4 µM
TGI [22]: 30.6 µM
TGI [23]: 39.5 µM
TGI [24]: 36.3 µM
TGI [25]: 27 µM
TGI [26]: 33.5 µM
TGI [27]: 29.9 µM
TGI [51]: 29.8 µM
TGI [52]: 39.6 µM
TGI [28]: 31.8 µM
TGI [29]: 54.8 µM
TGI [30]: 19.7 µM
TGI [31]: 39.9 µM
TGI [33]: 30.2 µM
TGI [54]: 30.4 µM
TGI [35]: 32.5 µM
TGI [36]: 29.6 µM
TGI [55]: 33.1 µM
TGI [37]: 36.3 µM
TGI [38]: 43.4 µM
TGI [56]: 39.8 µM
TGI [39]: 33.7 µM
TGI [40]: 42.4 µM
TGI [41]: 49.2 µM
TGI [42]: 49.7 µM
TGI [43]: 29.8 µM
TGI [57]: 34.1 µM
TGI [45]: 29.1 µM

Nc1c(N2CCCCC2)c(=O)nc2[nH]/c(=C\c3ccco3)c(=O)n12
TGI [1]: > 100 µM
TGI [58]: > 100 µM
TGI [2]: > 100 µM
TGI [3]: > 100 µM
TGI [46]: > 100 µM
TGI [4]: > 100 µM
TGI [5]: > 100 µM
TGI [6]: > 100 µM
TGI [7]: > 100 µM
TGI [47]: > 100 µM
TGI [9]: > 100 µM
TGI [10]: > 100 µM
TGI [12]: > 100 µM
TGI [13]: > 100 µM
TGI [14]: > 100 µM
TGI [15]: > 100 µM
TGI [16]: > 100 µM
TGI [17]: > 100 µM
TGI [48]: > 100 µM
TGI [18]: > 100 µM
TGI [19]: > 100 µM
TGI [49]: > 100 µM
TGI [50]: > 100 µM
TGI [21]: > 100 µM
TGI [22]: > 100 µM
TGI [23]: > 100 µM
TGI [24]: > 100 µM
TGI [26]: > 100 µM
TGI [27]: > 100 µM
TGI [52]: > 100 µM
TGI [28]: > 100 µM
TGI [29]: > 100 µM
TGI [31]: > 100 µM
TGI [53]: > 100 µM
TGI [32]: > 100 µM
TGI [33]: > 100 µM
TGI [34]: > 100 µM
TGI [35]: > 100 µM
TGI [36]: > 100 µM
TGI [55]: > 100 µM
TGI [37]: > 100 µM
TGI [38]: > 100 µM
TGI [56]: > 100 µM
TGI [39]: > 100 µM
TGI [40]: > 100 µM
TGI [41]: > 100 µM
TGI [42]: > 100 µM
TGI [43]: > 100 µM
TGI [57]: > 100 µM
TGI [45]: > 100 µM
